Legend:
[1] = T1-relaxivity measurements at different magnetic field strengths in water and foetal bovine serum; type: physicochemical
Method: For the subsequent T1-relaxivity measurements which were carried out, ultra-pure water and foetal bovine serum (FBS, pH 7.7) were used as the solvent for the metallic complexes. The relaxivity measurements at different magnetic field strengths were carried out on the following instruments: 0.94 T with a NMR relaxometer (Bruker Minispec mq 40, Germany), 1.5 T with a SIEMENS MAGNETOM Sonata MRI, 3 T with a SIEMENS MAGNETOM Lumina MRI and 7 T with a Bruker Pharmascan Kleintier-MRI.

[2] = excretion route of the iron complex; conditions: in vivo
[3] = pH dependency of T1- and T2-relaxivity in water (0.94 T NMR relaxometer); type: physicochemical; conditions: pH<6
Excerpt: At pH<6, a maximum T1-relaxivity of 1.7 l·mmol^−1·s^−1 or T2-relaxivity of 1.9 l·mmol^−1·s^−1 was reached.

For O=C(O)CN(CC(=O)O)[C@@H]1CCCC[C@H]1N(CC(=O)O)CC(=O)N[C@H]1CC[C@H](NC(=O)CN(CC(=O)O)[C@@H]2CCCC[C@H]2N(CC(=O)O)CC(=O)O)CC1 [(1-2)], the “T1-relaxivity (r1) per metal ion” value ([1]; 0.94 T, 37° C., FBS (pH 7.7)) was 2.18 L/mmol/s, the T1-relaxivity per molecule ([1]; 0.94 T, 37° C., FBS (pH 7.7)) was 4.36 L/mmol/s and the “T1-relaxivity (r1) per metal ion” value ([1]; 0.94 T, 37° C., water) was 1.99 L/mmol/s. The T1-relaxivity per molecule ([1]; 0.94 T, 37° C., water) was 3.98 L/mmol/s, the “T1-relaxivity (r1) per metal ion” value ([1]; 1.5 T, 23° C., FBS (pH 7.7)) was 3.26 L/mmol/s and the T1-relaxivity per molecule ([1]; 1.5 T, 23° C., FBS (pH 7.7)) was 6.52 L/mmol/s. For the same compound, the “T1-relaxivity (r1) per metal ion” value ([1]; 1.5 T, 23° C., water) was 2.75 L/mmol/s, the T1-relaxivity per molecule ([1]; 1.5 T, 23° C., water) was 5.5 L/mmol/s and the “T1-relaxivity (r1) per metal ion” value ([1]; 3.0 T, 37° C., FBS (pH 7.7)) was 3.39 L/mmol/s. For the same compound, the T1-relaxivity per molecule ([1]; 3.0 T, 37° C., FBS (pH 7.7)) was 6.78 L/mmol/s, the “T1-relaxivity (r1) per metal ion” value ([1]; 3.0 T, 37° C., water) was 2.99 L/mmol/s and the T1-relaxivity per molecule ([1]; 3.0 T, 37° C., water) was 5.98 L/mmol/s. For the same compound, the “T1-relaxivity (r1) per metal ion” value ([1]; 7.0 T, 37° C., FBS (pH 7.7)) was 3.23 L/mmol/s, the T1-relaxivity per molecule ([1]; 7.0 T, 37° C., FBS (pH 7.7)) was 6.46 L/mmol/s and the “T1-relaxivity (r1) per metal ion” value ([1]; 7.0 T, 37° C., water) was 2.65 L/mmol/s. For the same compound, the T1-relaxivity per molecule ([1]; 7.0 T, 37° C., water) was 5.3 L/mmol/s and the excretion route [2] was “liver excretion”.
With NCCNC(=O)CN(CC(=O)O)[C@@H]1CCCC[C@H]1N(CC(=O)O)CC(=O)O [(2-1)] the “maximum T1-relaxivity” value [3] was 1.7 L/mmol/s and the “maximum T2-relaxivity” value [3] was 1.9 L/mmol/s.
In the case of N[C@H]1CC[C@H](NC(=O)CN(CC(=O)O)[C@@H]2CCCC[C@H]2N(CC(=O)O)CC(=O)O)CC1 [(2-2)], the “T1-relaxivity (r1) per metal ion” value ([1]; 0.94 T, 37° C., FBS (pH 7.7)) is reported as 2.01 L/mmol/s, the “T1-relaxivity (r1) per metal ion” value ([1]; 0.94 T, 37° C., water) is reported as 1.92 L/mmol/s and the “T1-relaxivity (r1) per metal ion” value ([1]; 1.5 T, 23° C., FBS (pH 7.7)) is reported as 2.74 L/mmol/s. For the same compound, the “T1-relaxivity (r1) per metal ion” value ([1]; 1.5 T, 23° C., water) was 2.27 L/mmol/s, the “T1-relaxivity (r1) per metal ion” value ([1]; 3.0 T, 37° C., FBS (pH 7.7)) was 3.06 L/mmol/s and the “T1-relaxivity (r1) per metal ion” value ([1]; 3.0 T, 37° C., water) was 2.64 L/mmol/s. The “T1-relaxivity (r1) per metal ion” value ([1]; 7.0 T, 37° C., FBS (pH 7.7)) was 2.61 L/mmol/s and the “T1-relaxivity (r1) per metal ion” value ([1]; 7.0 T, 37° C., water) was 2.38 L/mmol/s.

— patent publication US12465659B2, “Iron(III) complexes having new contrast agent properties, for magnetic resonance imaging” (CHARITÉ—UNIVERSITÄTSMEDIZIN BERLIN, priority 2019, dated 2025)
